Data: patent publication US7977361B2, “Nitro-imidazole hypoxia imaging agent” (Siemens Medical Solutions USA, Inc., priority 2007, dated 2011)
Entries after “also recorded” stand apart in the source; their conditions may differ.

Experiments:
[1] = Bio-distribution and bio-stability of Compound 1 in mice (LC/MS of blood, urine and organs after IV injection); assay type: in vivo; details: mouse; for tissue uptake at 30 min: 1 µmol per animal
Protocol: Method: Compound 1 was dissolved in DMSO to achieve a 100 mM stock solution. This was then diluted with 1× PBS containing 3% Solutol to achieve a concentration of 5 mM. 200 μl of 5 mM Compound 1 solution was injected into the tail vein in mice animals under isofluorane anesthesia. The in vivo uptake was two hours.
Blood and urine samples were collected at 30, 60, 90 and 120 minutes. Samples were immediately placed on ice to prevent compound degradation. After blood and urine sampling were completed at 120 minutes, the mouse was sacrificed by cervical dislocation. The following whole organs were harvested within 30-40 minutes in the following order; lower GI, upper GI, spleen, pancreas, gall bladder, liver, heart, kidneys, lungs, about 0.3 gram of muscle from both legs, about 0.4 gram of skin at the back, the entire brain and about 0.4 gram of fat inside the abdomen.
(§1) To the samples were added a proportional amount of lysis buffer (about 5 ml/gram tissue) before the tissue was homogenized using a powered homogenizer, 50 μL of lysis buffer was added to the blood and urine samples, followed by briefly vortexing. 200 μl of organ homogenate was sampled into a 1.5 ml Eppendorf tube. All samples were heated at 100° C. for 2 minutes to denature the proteins and then placed in ice for 15 minutes. Then 40 μl of formic acid was added to the organ samples and 20 μl was added to the blood and urine samples. All tubes were vortexed to achieve complete mixing of sample with acid. Samples were then placed on ice for 15 minutes before being centrifuged at 13000 rpm for 15 minutes at 4° C. 30 μl of the supernatant was transferred to an HPLC vial for MSD analysis.
(§2) A standard curve with a wide range of Compound 1 concentrations was prepared using the same method described above for tissue lysate treatment. The corresponding peak of the compound was identified first in the standards. The areas of the peaks were measured and converted into a standard correlation curve for estimation of Compound 1 concentration in the samples. The amount of compound in each sample is expressed as % injected dose/gram tissue (% ID/g tissue).

[2] = Plasma and urine pharmacology study of Compound 1 in rats (LC/MS after IV injection); assay type: in vivo; details: rat
Protocol: as §1, §2
Method: Compound 1 solution was prepared as described previously. One ml of 10 mM Compound 1 solution was injected intravenously (tail vein) into rats under isofluorane anesthesia. Blood and urine samples were collected before injection and at 15, 30, 60, 90 and 120 minutes after injection. Samples treatments and LC/MS measurement are the same as the mouse samples described in 1A.

[3] = system: Ls174T human colorectal adenocarcinoma; assay: Cytotoxicity assay (MTT reduction), Ls174T cells; assay type: cell-based; details: 0-10000 nM, 24 hours
Protocol: (§3) Method: The assay is based on the ability of viable cells to reduce 3-[4,5-dimethylthiazol-2-yl]-2,5-diphenyl tetrazolium bromide to colored formazan crystals. Ls174T human colorectal adenocarcinoma, A172 human brain glioblastoma, MRC5 human normal lung fibroblast, and ALM12 mouse normal liver cell lines were selected for this study. Cells were cultured with different concentration of Compound 1 (0, 100, 500, 1000, 5000, 10000 nM) for 24 hours and then incubated with 0.5 mg/ml of 3-[4,5-dimethylthiazol-2-yl]-2,5-diphenyl tetrazolium bromide for 1 hour. Cells were lysed and formazan crystals were dissolved with 2-propanol for 1 hour and the optical density of the resultant colored 2-propanol was measured. The percentages of cell survival were calculated based on the optical densities.

[4] = system: A172 human brain glioblastoma; assay: Cytotoxicity assay (MTT reduction), A172 cells; assay type: cell-based; details: A172, 0-10000 nM, 24 hours
Protocol: as §3

[5] = system: MRC5 human normal lung fibroblast; assay: Cytotoxicity assay (MTT reduction), MRC5 cells; assay type: cell-based; details: MRC5, 0-10000 nM, 24 hours
Protocol: as §3

[6] = system: ALM12 mouse normal liver cell lines; assay: Cytotoxicity assay (MTT reduction), ALM12 cells; assay type: cell-based; details: ALM12, 0-10000 nM, 24 hours
Protocol: as §3

O=[N+]([O-])c1nccn1Cc1cn(C(CO)CF)nn1 (stereo not drawn) [Compound 1, 3-Fluoro-2-(4-((2-nitro-1H-imidazol-1-yl)methyl)-1H-1,2,3-triazol-1-yl)propan-1-ol]
tissue uptake at 30 min ([1]; IV tail vein 200 μl of 5 mM, urine at 30 minutes, read-out: urine level): 95.6 %ID/g
blood clearance and urine excretion [1]: fast
urine excretion index (averaged urine % ID/g divided by blood % ID/g at 120 minute) [1]: 88.69
blood level ([1]; IV tail vein 200 μl of 5 mM, blood at 120 minutes): 0.59%
levels in gall bladder and GI system ([1]; organs harvested after 120 minutes): low
tissue uptake at 30 min ([1]; whole blood, IV tail vein 200 μl of 5 mM, blood at 30 minutes, read-out: blood level): 4.1 %ID/g
tissue uptake at 30 min ([2]; 10 µmol per animal, IV tail vein 1 ml of 10 mM, urine at 30 minute, read-out: urine level): 5.3 %ID/g
urine excretion and blood clearance [2]: fast
urine excretion index (averaged urine % ID/g divided by blood % ID/g at 120 minute) [2]: 36.62
tissue uptake at 30 min ([2]; whole blood, 10 µmol per animal, IV tail vein 1 ml of 10 mM, blood at 30 minutes, read-out: blood level): 0.67 %ID/g
tissue uptake at 120 min ([2]; whole blood, 10 µmol per animal, IV tail vein 1 ml of 10 mM, blood at 120 minutes, read-out: blood level): 0.15 %ID/g
cytotoxicity: numbers of viable cells vs untreated control cells [3]: no cytotoxic effects; also recorded: no difference
cytotoxicity: numbers of viable cells vs untreated control cells [4]: no cytotoxic effects; also recorded: no difference
cytotoxicity: numbers of viable cells vs untreated control cells [5]: no cytotoxic effects; also recorded: no difference
cytotoxicity: numbers of viable cells vs untreated control cells [6]: no difference
